Test results from paper PMC10934261, “Designing Potent Anti-Cancer Agents: Synthesis and Molecular Docking Studies of Thieno[2,3-d][1,2,4]triazolo[1,5-a]pyrimidine Derivatives” (Molecules, 2024).
Where “and” joins values, the source holds several entries; their conditions need not be identical. Equal entries are not always repeated.

Experiments:
[1] = test system: human colorectal HCT-116 cancer cell line; test: In vitro cytotoxic screening (MTT assay), HCT-116; assay type: cell-based; conditions: average ± standard deviation
Method: (§1) Using human breast MCF-7, colorectal HCT-116, and prostate PC-3 cancer cell lines, preliminary antiproliferative effectiveness of cyclopenta[4,5]thieno[2,3-d][1,2,4]triazolo[1,5-a]pyrimidin-9(6H)-ones 4–16 was established in vitro through MTT assay at different concentrations (100, 50, 25 and 12.5 μM) (Figure 2).
(§2) The cell lines were obtained from Karolinska Center, Department of Oncology and Pathology, Karolinska Institute and Hospital, Stockholm, Sweden. as follows: human breast MCF-7, colorectal HCT-116 and prostate PC-3 cancer cell lines and human skin normal BJ-1 cell line. Exponentially, cells were cultured at a concentration of 10^4 cells/well for 24 h, afterwards fresh medium containing different concentrations of the tested samples was added. Serial two-fold dilution of the tested samples were added using a multichannel pipette. Moreover, all cells were cultivated at 37 °C, 5% CO2 and 95% humidity. Also, incubation of control cells occurred at 37 °C. However, after incubation for 24 h different concentrations of samples (100, 50, 25 and 12.5 µM) were added and the incubation was continued for 48 h, then crystal violet solution 1% was added to each well for 0.5 h to examine the presence of viable cells. After rinsing the wells using water until stain free, 30% glacial acetic acid was added to all wells with shaking the plates on a Microplate reader (TECAN, Inc.) to measure the absorbance at a wavelength of 490 nm. The cytotoxicity was estimated by IC50 in μM, which is the concentration that inhibits 50% of growth of cancer cells. […]
(§3) 1.1. In vitro cytotoxic screening
(§4) The cell lines were obtained from Karolinska Center, Department of Oncology and Pathology, Karolinska Institute and Hospital, Stockholm, Sweden. as follows: human breast MCF-7, colorectal HCT-116 and prostate PC-3 cancer cell lines and human skin normal BJ-1 cell line. Exponentially, cells were placed in 10^4 cells/ well for 24 h, and then add fresh medium which containing different concentration of the tested sample. Serial two-fold dilution of the tested sample were added using a multichannel pipette. Moreover, all cells were cultivated at 37 °C, 5% CO2 and 95% humidity. Also, incubation of control cells occurred at 37 °C. However, after incubation for 24 h different concentrations of sample (100, 50, 25 and 12.5 µM) were added and continued the incubation for 48 h, then, add the crystal violet solution 1% to each well for 0.5 h to examine viable cells. Rinse the wells using water until no stain. After that, add 30% glacial acetic acid to all wells with shaking plates on Microplate reader (TECAN, Inc.) to measure the absorbance, using a test wavelength of 490 nm. Besides, compare the treated samples with the control cell. The cytotoxicity was estimated by IC50 in (μ M), the concentration that inhibits 50% of growth of cancer cell. […]
(§5) The molecular docking simulation of the promising in vitro screened cyclopenta[4,5]thieno[2,3-d][1,2,4]triazolo[1,5-a]pyrimidin-9(6H)-ones 10b and 10e against EGFR and PI3K was done using the Molecular Operating Environment software (MOE-Dock) version 2014.0901. The co-crystallized structures of EGFR and PI3K kinases complexed with their native ligands, erlotinib and quinolone LXX, were downloaded from the protein data bank (PDB codes: 1M17 and 3L54, respectively). All minimizations were performed using MOE until an RMSD gradient of 0.05 kcal∙mol−1Å−1 with MMFF94x force field and the partial charges were automatically calculated. Preparation of the enzyme structures was done for molecular docking using Protonate 3D protocol with the default options in MOE. London dG scoring function and Triangle Matcher placement method were used in the docking protocol. Initially, the original ligands were re-docked into the active binding site of EGFR and PI3K kinases to assess the root-mean-square deviation values. Then, the docking studies of the newly targeted […]

[2] = test system: human breast MCF-7 cancer cell line; test: In vitro cytotoxic screening (MTT assay), MCF-7; assay type: cell-based; conditions: for Percentage cytotoxicity on MCF-7: average ± standard deviation; for IC50: Homo sapiens, MCF7, MCF-7, 48 h incubation, mean of three values, read-out: IC50 (Mean ± SD) MCF-7
Method: as §1, §2, §3, §4, §5

[3] = test system: human prostate PC-3 cancer cell line; test: In vitro cytotoxic screening (MTT assay), PC-3; assay type: cell-based; conditions: average ± standard deviation
Method: as §1, §2, §3, §4, §5

| SMILES | melting point | Percentage cytotoxicity on HCT-116 ([1]; 12.5 µM) | Percentage cytotoxicity on HCT-116 ([1]; 25 µM) | Percentage cytotoxicity on HCT-116 ([1]; 50 µM) | Percentage cytotoxicity on HCT-116 ([1]; 100 µM) | Percentage cytotoxicity on MCF-7 ([2]; 12.5 µM) | Percentage cytotoxicity on MCF-7 ([2]; 25 µM) | Percentage cytotoxicity on MCF-7 ([2]; 50 µM) | Percentage cytotoxicity on MCF-7 ([2]; 100 µM) | Percentage cytotoxicity on PC-3 ([3]; 12.5 µM) | Percentage cytotoxicity on PC-3 ([3]; 25 µM) | Percentage cytotoxicity on PC-3 ([3]; 50 µM) | Percentage cytotoxicity on PC-3 ([3]; 100 µM) | IC50 [2] |
| --- | --- | --- | --- | --- | --- | --- | --- | --- | --- | --- | --- | --- | --- | --- |
| CC(=O)C/C(C)=N/n1c(N)nc2sc3c(c2c1=O)CCC3 [Compound 8, (E)-2-Amino-3-((4-oxopentan-2-ylidene)amino)-3,5,6,7-tetrahydro-4H-cyclopenta[4,5]thieno[2,3-d]pyrimidin-4-one] | > 300 °C | 0.0±0.005% | 0.0±0.005% | 0.0±0.005% | 0.0±0.005% | 30.1±4.1% | 31.9±3.1% | 40.9±7.8% | 45.7±5.9% | 0.0±0.005% | 0.0±0.005% | 0.0±0.005% | 0.0±0.005% | – |
| O=c1c2c3c(sc2nc2[nH]cnn12)CCC3 [Compound 4, 7,8-Dihydro-3H-cyclopenta[4,5]thieno[2,3-d][1,2,4]triazolo[1,5-a]pyrimidin-9(6H)-one] | > 300 °C | 0.0±0.005% | 0.0±0.005% | 0.0±0.005% | 9.1±2.0% | 31.5±5.7% | 23.6±3.2% | 35.5±4.4% | 34.8±4.1% | 0.0±0.005% | 0.0±0.005% | 0.0±0.005% | 11.3±3.7% | – |
| O=c1c2c3c(sc2nc2[nH]c(=S)[nH]n12)CCC3 [Compound 9, 2-Thioxo-2,3,7,8-tetrahydro-1H-cyclopenta[4,5]thieno[2,3-d][1,2,4]triazolo[1,5-a]pyrimidin-9(6H)-one] | > 300 °C | 0.0±0.005% | 0.0±0.005% | 0.0±0.005% | 0.0±0.005% | 0.0±0.005% | 28.4±2.6% | 32.7±2.4% | 62.5±7.6% | 3.7±1.3% | 6.3±0.9% | 7.8±1.3% | 19.3±3.5% | 71.8 ± 1.05 µM |
| O=c1c2c3c(sc2nc2[nH]c(-c4ccc(Cl)cc4)nn12)CCC3 [Compound 10a, 2-(4-Chlorophenyl)-7,8-dihydro-3H-cyclopenta[4,5]thieno[2,3-d][1,2,4]triazolo[1,5-a]pyrimidin-9(6H)-one] | 220 to 222 °C | 14.4±2.3% | 17.8±1.7% | 17.9±1.7% | 20.3±2.1% | 16.5±9.5% | 33.3±0.8% | 44.4±11.2% | 61.4±4.7% | 20.7±3.9% | 30.7±0.5% | 35.9±0.8% | 40.9±4.1% | 60.6 ± 0.45 µM |

More lines, main results first:

| melting point | SMILES | Percentage cytotoxicity on HCT-116 ([1]; 12.5 µM) | Percentage cytotoxicity on HCT-116 ([1]; 25 µM) | Percentage cytotoxicity on HCT-116 ([1]; 50 µM) | Percentage cytotoxicity on HCT-116 ([1]; 100 µM) | Percentage cytotoxicity on MCF-7 ([2]; 12.5 µM) | Percentage cytotoxicity on MCF-7 ([2]; 25 µM) | Percentage cytotoxicity on MCF-7 ([2]; 50 µM) | Percentage cytotoxicity on MCF-7 ([2]; 100 µM) | Percentage cytotoxicity on PC-3 ([3]; 12.5 µM) | Percentage cytotoxicity on PC-3 ([3]; 25 µM) | Percentage cytotoxicity on PC-3 ([3]; 50 µM) | Percentage cytotoxicity on PC-3 ([3]; 100 µM) | IC50 [2] |
| --- | --- | --- | --- | --- | --- | --- | --- | --- | --- | --- | --- | --- | --- | --- |
| > 300 °C | O=c1c2c3c(sc2nc2nc([C@H](O)[C@@H](O)[C@H](O)[C@H](O)CO)[nH]n12)CCC3 [Compound 11a, 2-((1S,2R,3R,4R)-1,2,3,4,5-pentahydroxypentyl)-1,6,7,8-tetrahydro-9H-cyclopenta[4,5]thieno[2,3-d][1,2,4]triazolo[1,5-a]pyrimidin-9-one] | 12.94±4.6% | 12.94±4.6% | 25.8±1.6% | 32.4±3.9% | 0.0±0.005% | 16.2±1.6% | 41.3±4.3% and 36.6±6.3% | 36.6±6.3% and 41.3±4.3% | 9.9±2.5% | 21.9±1.0% | 7.3±0.3% | 33.9±3.5% | – |
| 180 to 182 °C | COc1ccc(-c2nn3c(=O)c4c5c(sc4nc3[nH]2)CCC5)cc1 [Compound 10d, 2-(4-Methoxyphenyl)-7,8-dihydro-3H-cyclopenta[4,5]thieno[2,3-d][1,2,4]triazolo[1,5-a]pyrimidin-9(6H)-one] | 0.0±0.005% | 0.0±0.005% | 0.0±0.005% | 14.3±4.3% | 12.7±2.1% | 35.1±5.9% | 47.3±8.5% | 53.1±6.1% | 9.1±6.3% | 21.6±0.06% | 26.9±1.2% | 36.4±3.1% | – |
| > 300 °C | CC(=O)OC[C@H]1O[C@@H](n2cnn3c(=O)c4c5c(sc4nc23)CCC5)[C@H](OC(C)=O)[C@@H](OC(C)=O)[C@@H]1OC(C)=O [Compound 14, 3-(2,3,4,6-Tetra-O-acetyl-β-d-glocopyranosyl)-7,8-dihydro-3H-cyclopenta-[4,5]thieno-[2,3-d][1,2,4]triazolo[1,5-a]pyrimidin-9(6H)-one] | 0.0±0.005% | 0.0±0.005% | 0.0±0.005% | 15.7±2.9% | 0.0±0.005% | 0.0±0.005% | 0.0±0.005% | 29.2±0.8% | 0.0±0.005% | 0.0±0.005% | 0.0±0.005% | 9.5±1.9% | – |
| > 300 °C | CC(=O)C/C(C)=N/n1c(N[C@@H]2O[C@H](COC(C)=O)[C@@H](OC(C)=O)[C@H](OC(C)=O)[C@H]2OC(C)=O)nc2sc3c(c2c1=O)CCC3 [Compound 15, (E)-3-((4-Oxopentan-2-ylidene)amino)-2-((2,3,4,6-tetra-O-acetyl-β-D-glocopyranosyl)amino)-6,7-dihydro-3H-cyclopenta[4,5]thieno[2,3-d]pyrimidin-4(5H)-one] | 0.0±0.005% | 0.0±0.005% | 0.0±0.005% | 3.0±1.2% | 0.0±0.005% | 0.0±0.005% | 0.0±0.005% | 19.7±3.7% | 0.0±0.005% | 0.0±0.005% | 0.0±0.005% | 5.6±1.2% | – |
